Measurements reported in patent US9186345B2 (priority 2004, dated 2015).
Structures can show the parent of a compound that is named as a salt.

Test system: plaque type psoriasis vulgaris
Assay: Simple-blind, own-control topical gel treatment of five psoriasis patients (Example 1)
Type: in vivo, human
From the text: The gel used was of the following composition:
Patients for the treatment of psoriasis (five patients) were chosen as having a relatively secure diagnosis of plaque type psoriasis vulgaris with silvery scales covering the surface of the lesion. This disease tends to be chronic, and often difficult to treat with topical agents. All of the five patients treated were diagnosed by a dermatologist and had the diagnosis for over three years. None of these patients had arthritis.
After a treatment, which may vary from two weeks to one month, there was a considerable improvement both scaling, size, thickness and erythematous appearance of the lesions. The lesions in these patients were all symmetric and each patient was treated with the formulation of the present invention without the active compound on one side and with the active compound on the other. Each patient was treated as their own control (simple blind).
Two patients were treated with galantamine and three patients with donepezil.

Structure (SMILES) | adverse effect (gel containing 0.1% active compound, two days twice daily) | adverse effect (human, in vivo)
COc1ccc2c3c1O[C@H]1C[C@@H](O)C=C[C@@]31CCN(C)C2 [galantamine, galantamine hydrobromide] | no adverse effect was noticed | –
COc1cc2c(cc1OC)C(=O)C(CC1CCN(Cc3ccccc3)CC1)C2 (centres unmarked) [donepezil, donepezil hydrochloride] | – | no adverse effect was noticed
